# Results reported in ChEMBL document CHEMBL1201862, “PubChem BioAssay data set” (2004).
# Active and inactive are the calls of the source.
# Columns and labels:
# [1] = target: T1, Protein RecA (Mycobacterium tuberculosis, UniProt P9WHJ3); assay: Fluorescence Cell-Free Homogeneous Dose Retest to Identify Inhibitors of RecA-Intein Splicing Activity. [Related pubchem assays (depositor defined):AID2097, AID2223, AID489010, AID492950]; format: functional
# T1 sequence (P9WHJ3 whole entry): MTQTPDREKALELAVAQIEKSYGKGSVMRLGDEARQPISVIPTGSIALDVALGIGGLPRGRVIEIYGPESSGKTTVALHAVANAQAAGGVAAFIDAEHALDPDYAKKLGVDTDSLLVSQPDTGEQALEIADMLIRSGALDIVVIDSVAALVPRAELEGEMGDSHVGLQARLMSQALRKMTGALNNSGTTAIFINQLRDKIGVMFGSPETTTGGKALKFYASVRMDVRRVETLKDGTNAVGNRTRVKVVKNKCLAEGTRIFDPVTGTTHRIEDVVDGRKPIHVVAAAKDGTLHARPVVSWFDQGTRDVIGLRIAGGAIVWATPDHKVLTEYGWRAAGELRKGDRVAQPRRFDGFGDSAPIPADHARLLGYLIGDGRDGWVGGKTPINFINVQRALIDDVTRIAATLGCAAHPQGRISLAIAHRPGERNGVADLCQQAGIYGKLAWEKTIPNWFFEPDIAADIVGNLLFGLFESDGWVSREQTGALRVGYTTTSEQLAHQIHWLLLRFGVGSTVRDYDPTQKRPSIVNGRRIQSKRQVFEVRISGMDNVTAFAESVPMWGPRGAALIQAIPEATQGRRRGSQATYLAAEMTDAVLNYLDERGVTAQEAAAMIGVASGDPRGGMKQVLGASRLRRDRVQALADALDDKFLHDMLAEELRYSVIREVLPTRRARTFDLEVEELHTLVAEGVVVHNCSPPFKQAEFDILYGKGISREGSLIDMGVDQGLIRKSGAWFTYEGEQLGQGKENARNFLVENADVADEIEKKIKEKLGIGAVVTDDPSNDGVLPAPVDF
# [2] = target: T2, Replicative DNA helicase DnaB (Mycobacterium tuberculosis, UniProt P9WMR3); assay: DnaB intein splicing inhibitors, dose response, biochemical, cell-free fluorescence (AID 449749); format: functional
# T2 sequence (P9WMR3 whole entry): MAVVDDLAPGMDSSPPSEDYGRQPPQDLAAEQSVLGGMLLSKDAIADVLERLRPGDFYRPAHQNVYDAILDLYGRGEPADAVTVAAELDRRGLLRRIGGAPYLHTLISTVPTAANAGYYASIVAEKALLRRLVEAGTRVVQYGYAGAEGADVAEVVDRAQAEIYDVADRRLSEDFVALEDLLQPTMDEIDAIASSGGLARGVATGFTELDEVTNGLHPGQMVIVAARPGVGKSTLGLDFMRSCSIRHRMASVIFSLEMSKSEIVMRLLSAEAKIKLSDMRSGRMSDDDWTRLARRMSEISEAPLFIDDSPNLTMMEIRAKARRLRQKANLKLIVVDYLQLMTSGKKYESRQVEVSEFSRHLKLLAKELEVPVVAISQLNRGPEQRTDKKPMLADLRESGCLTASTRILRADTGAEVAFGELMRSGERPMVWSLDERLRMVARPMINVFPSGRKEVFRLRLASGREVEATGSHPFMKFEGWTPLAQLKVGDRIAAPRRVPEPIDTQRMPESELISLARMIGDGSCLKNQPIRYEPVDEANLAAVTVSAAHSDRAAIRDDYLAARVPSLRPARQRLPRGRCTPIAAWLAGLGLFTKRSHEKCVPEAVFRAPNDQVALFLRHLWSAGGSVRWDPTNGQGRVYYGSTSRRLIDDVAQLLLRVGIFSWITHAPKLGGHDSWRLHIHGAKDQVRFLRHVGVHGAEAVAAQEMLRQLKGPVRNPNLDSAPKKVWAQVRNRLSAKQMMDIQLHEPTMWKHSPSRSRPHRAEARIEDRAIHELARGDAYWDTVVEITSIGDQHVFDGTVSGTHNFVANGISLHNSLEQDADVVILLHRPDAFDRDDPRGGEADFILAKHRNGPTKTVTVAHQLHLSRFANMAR
# [3] = target: T3, Heat shock factor protein 1 (Mus musculus, UniProt P38532); assay: decrease of HSF1-responsive luciferase luminescence – cell-based, NIH3T3, dose retest, confirmation (AID 2382); format: functional;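 also: NIH3T3 fibroblasts with HSF1-driven luciferase reporter stressed by proteasome inhibitor MG132; luminescence from HSF1-driven luciferase expression after 8 hours of MG132 stress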
# T3 sequence (P38532 whole entry): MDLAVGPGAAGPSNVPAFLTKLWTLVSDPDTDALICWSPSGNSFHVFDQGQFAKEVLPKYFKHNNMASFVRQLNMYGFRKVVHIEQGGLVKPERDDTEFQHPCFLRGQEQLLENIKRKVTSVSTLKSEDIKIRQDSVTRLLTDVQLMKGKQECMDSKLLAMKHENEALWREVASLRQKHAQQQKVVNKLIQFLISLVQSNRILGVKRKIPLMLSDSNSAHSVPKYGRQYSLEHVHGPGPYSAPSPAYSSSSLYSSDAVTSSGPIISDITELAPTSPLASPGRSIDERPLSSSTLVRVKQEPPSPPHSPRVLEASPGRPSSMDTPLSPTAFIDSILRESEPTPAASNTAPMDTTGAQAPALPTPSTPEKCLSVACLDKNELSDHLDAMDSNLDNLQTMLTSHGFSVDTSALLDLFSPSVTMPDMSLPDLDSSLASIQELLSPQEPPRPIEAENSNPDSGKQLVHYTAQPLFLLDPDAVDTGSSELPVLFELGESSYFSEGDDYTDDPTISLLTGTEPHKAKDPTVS
# [4] = target: T4, Cytochrome P450 1A2 (Homo sapiens, UniProt P05177);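 also: PubChem cytochrome P450 panel assay, CYP1A2 panel member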
# T4 sequence (P05177 whole entry): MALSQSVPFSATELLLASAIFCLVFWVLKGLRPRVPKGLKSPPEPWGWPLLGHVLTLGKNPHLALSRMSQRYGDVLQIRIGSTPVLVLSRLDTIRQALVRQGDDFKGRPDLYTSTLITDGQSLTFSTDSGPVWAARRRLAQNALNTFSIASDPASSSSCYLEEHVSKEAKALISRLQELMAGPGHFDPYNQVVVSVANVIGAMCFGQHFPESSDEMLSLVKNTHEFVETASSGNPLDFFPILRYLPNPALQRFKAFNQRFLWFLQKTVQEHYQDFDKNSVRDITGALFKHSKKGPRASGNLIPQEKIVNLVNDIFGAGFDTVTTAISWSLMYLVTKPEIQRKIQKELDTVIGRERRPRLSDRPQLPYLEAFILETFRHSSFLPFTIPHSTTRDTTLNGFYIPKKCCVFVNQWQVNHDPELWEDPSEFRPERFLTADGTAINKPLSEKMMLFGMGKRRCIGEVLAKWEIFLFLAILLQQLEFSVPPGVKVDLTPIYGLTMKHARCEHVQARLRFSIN
# [5] = target: Cytochrome P450 2C19 (Homo sapiens, UniProt P33261); assay: Cytochrome panel assay with activity outcomes. Panel member name: p450-cyp2c19 Compounds with AC50 equal or less than 10 uM are considered active; format: functional; settings: read-out: AC50
# Sequence of Cytochrome P450 2C19 (P33261 whole entry): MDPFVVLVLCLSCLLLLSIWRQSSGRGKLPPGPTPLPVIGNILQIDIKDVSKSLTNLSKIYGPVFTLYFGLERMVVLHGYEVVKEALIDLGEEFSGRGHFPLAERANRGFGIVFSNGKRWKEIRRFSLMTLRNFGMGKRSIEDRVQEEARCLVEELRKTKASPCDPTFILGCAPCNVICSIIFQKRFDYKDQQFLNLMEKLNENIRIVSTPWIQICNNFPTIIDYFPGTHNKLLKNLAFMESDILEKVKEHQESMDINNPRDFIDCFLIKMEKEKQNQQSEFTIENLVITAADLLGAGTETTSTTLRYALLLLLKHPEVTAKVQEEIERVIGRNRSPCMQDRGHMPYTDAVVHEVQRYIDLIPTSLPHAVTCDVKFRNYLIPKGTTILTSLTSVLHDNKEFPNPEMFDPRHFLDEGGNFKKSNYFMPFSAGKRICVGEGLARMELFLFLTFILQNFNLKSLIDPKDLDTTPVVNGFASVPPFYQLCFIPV
# [6] = target: Cytochrome P450 3A4 (Homo sapiens, UniProt P08684);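 also: CYP3A4 tested as one member of a cytochrome P450 panel screen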
# Sequence of Cytochrome P450 3A4 (P08684 whole entry): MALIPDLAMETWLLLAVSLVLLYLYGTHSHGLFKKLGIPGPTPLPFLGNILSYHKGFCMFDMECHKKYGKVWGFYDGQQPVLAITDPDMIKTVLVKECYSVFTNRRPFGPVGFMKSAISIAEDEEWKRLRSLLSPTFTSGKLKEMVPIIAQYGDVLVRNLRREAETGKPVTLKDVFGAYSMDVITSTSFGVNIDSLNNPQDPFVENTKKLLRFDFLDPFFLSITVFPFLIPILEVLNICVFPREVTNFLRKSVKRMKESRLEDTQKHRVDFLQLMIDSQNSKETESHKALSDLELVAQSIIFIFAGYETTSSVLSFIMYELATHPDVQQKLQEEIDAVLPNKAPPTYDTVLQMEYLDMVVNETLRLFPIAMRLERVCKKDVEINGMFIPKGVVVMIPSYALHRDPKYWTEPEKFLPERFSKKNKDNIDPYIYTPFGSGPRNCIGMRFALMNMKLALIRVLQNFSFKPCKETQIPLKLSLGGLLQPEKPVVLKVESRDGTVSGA
# [7] = target: T5, Corticotropin-releasing factor receptor 2/Corticotropin-releasing factor-binding protein (Homo sapiens, UniProt P24387+Q13324); assay: activators of CRF receptor 2 with binding protein – uHTS hits, confirmation (AID 602473); format: functional; settings: read-out: EC50_Mean
# T5 sequence (Q13324 whole entry): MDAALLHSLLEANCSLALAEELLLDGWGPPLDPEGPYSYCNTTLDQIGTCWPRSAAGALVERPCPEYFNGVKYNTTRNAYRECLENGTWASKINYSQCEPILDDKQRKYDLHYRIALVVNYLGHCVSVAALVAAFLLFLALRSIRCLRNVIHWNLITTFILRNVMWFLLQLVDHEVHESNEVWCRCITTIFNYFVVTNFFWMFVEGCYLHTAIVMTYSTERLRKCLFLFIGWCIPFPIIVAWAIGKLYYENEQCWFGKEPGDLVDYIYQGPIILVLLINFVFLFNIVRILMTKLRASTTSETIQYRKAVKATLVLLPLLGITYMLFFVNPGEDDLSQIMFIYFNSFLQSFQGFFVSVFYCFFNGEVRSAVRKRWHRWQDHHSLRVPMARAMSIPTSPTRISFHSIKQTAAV
# T5 sequence (P24387 whole entry): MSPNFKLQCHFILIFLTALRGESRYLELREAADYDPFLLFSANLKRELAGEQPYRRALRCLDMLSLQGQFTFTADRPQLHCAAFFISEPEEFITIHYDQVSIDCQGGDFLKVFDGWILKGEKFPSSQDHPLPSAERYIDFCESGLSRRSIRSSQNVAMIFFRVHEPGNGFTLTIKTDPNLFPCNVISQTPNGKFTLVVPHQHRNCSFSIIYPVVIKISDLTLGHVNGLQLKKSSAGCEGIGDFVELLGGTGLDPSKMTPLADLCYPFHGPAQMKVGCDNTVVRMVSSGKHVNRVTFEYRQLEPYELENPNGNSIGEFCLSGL
# [8] = test system: Streptococcus; assay: GAS UMAA2166 growth inhibition – luminescence, BacTiterGlo, counter-screen for streptokinase expression inhibitor project, dose response (AID 1915); format: functional, organism-based;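 also: potency for reduction of bacterial viability or growth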
# [9] = test system: Streptococcus sp. 'group A'; assay: Streptococcus pyogenes SK(-)GAS viability under kanamycin – luminescence, BacTiterGlo, confirmation, counter-screen for streptokinase expression inhibitor project, dose response (AID 1900); format: functional, organism-based
smiles,measurement,setting,value
Cc1ccc(-c2csc(NC(=O)CSC3=NCCS3)n2)cc1,EC50,[1],3.83 µM (active)
same,AC50,[2],14.6 µM (active)
COc1ccccc1CN1CC(C(=O)NCCN2CCNC2=O)CCC1=O (centres undefined),EC50,[3],9.48 µM (active)
O=C(Nc1cccc(S(=O)(=O)N2CCOCC2)c1)c1ccccn1,EC50,[3],> 195 µM (not active)
Cn1c(=O)n(C)c2cc(NS(C)(=O)=O)ccc21,EC50,[3],> 195 µM (not active)
COc1cccc(-c2csc(N3CCN(CC(=O)NNC(=O)c4ccc(Cl)cc4)CC3)n2)c1,AC50,[4],8.91 µM (inconclusive)
O=C1CC(CC(=O)N/N=C/c2ccccc2[N+](=O)[O-])=NN1,EC50,[1],1.85 µM (active)
same,AC50,[2],2.19 µM (active)
COCCN(C(S)=Nc1c(C)cccc1C)C(C)c1cccnc1 (centres undefined),EC50,[3],> 195 µM (not active)
Cc1n[nH]c2c1C(c1ccc3c(c1)OCO3)C(C#N)=C(N)O2 (centres undefined),EC50,[1],6.16 µM (active)
same,AC50,[2],15.6 µM (active)
COC(=O)c1c(NC(=O)C(C)(C)C)sc2c1C(C(=O)OC)CC2 (centres undefined),AC50,[5],14.1 µM (inconclusive)
same,AC50,[4],0.794 µM (inconclusive)
CN1C(=O)c2ccccc2Sc2ccc(C(=O)N3CCC4(CC3)OCCO4)cc21,AC50,[6],20 µM (inconclusive)
same,EC50,[3],> 195 µM (not active)
CCCCn1c(N)c(N(CC(C)C)C(=O)c2cccc(S(=O)(=O)N3CCCCC3)c2)c(=O)[nH]c1=O,EC50,[3],> 195 µM (not active)
NC1=NN(c2cccc(C(=O)O)c2)C(=O)C1,EC50,[1],23.7 µM (inconclusive)
same,AC50,[2],20 µM (active)
CC1=NN(c2ccccc2)C(=O)/C1=C\c1cn(CCC#N)nc1-c1ccc(Cl)cc1,EC50,[1],2.77 µM (active)
same,AC50,[2],3.78 µM (active)
Cc1ccc(S(=O)(=O)N2CCN(C(=O)c3ccccc3Cc3ccccc3)CC2)c(C)c1,EC50,[1],208 µM (active)
same,AC50,[2],2.54 µM (active)
FC(F)Oc1ccc(NC(S)=NNc2ccnc3cc(Cl)ccc23)cc1,EC50,[3],> 195 µM (not active)
Cc1ccc(-n2nc(C)c3c2OC(N)=C(C#N)C3c2ccccc2F)cc1 (centres undefined),EC50,[1],24 µM (inconclusive)
same,AC50,[2],5.37 µM (active)
COc1ccc(CC(NC(C)=O)C(=O)NC2CCN(C(=O)c3ccc(OC)c(OC)c3)CC2)cc1OC (centres undefined),EC50,[3],> 195 µM (not active)
C[C@]12c3[nH]c4ccccc4c3CCN1C(=O)C(CC(=O)NCC13C[C@H]4C[C@@H](C1)C[C@@H](C3)C4)C[C@@H]2C(=O)N1CCOCC1 (some centres undefined),EC50,[7],> 53 µM (inactive)
Nc1ccc(C#Cc2ccc3oc4ccccc4c(=O)c3c2)cc1,EC50,[8],2.37 µM (active)
same,EC50,[9],2.5 µM (active)
CNCC[C@@H](Oc1ccccc1C)c1ccccc1 [ATOMOXETINE],AC50,[6],12.6 µM (inconclusive)
same,AC50,[4],15.8 µM (inconclusive)
CCN(CC)S(=O)(=O)c1ccc(C)c(NC(=O)CNCc2ccccc2OC)c1,EC50,[3],> 195 µM (not active)
CN(CC(=O)Nc1cccc(F)c1)CC(=O)Nc1cccc(S(N)(=O)=O)c1,EC50,[3],> 195 µM (not active)
COCCn1c(=O)c(-c2ccc(Cl)cc2)nc2cnc(Nc3ccccc3)nc21,AC50,[4],20 µM (inconclusive)
CCN(C(=O)COC(=O)/C=C/c1ccccc1)C1CCCCC1,EC50,[3],> 195 µM (not active)
CC(C(=O)NC1CC(C)(C)NC(C)(C)C1)c1ccc([N+](=O)[O-])cc1 (centres undefined),EC50,[3],> 195 µM (not active)
Cc1nn(C)c(Cl)c1CN1CCC(n2nccc2NC(=O)C2CCCC2)CC1,EC50,[3],> 195 µM (not active)
O=C(C1CCCC1)N1CCCC(Nc2ccc(F)cc2)C1 (centres undefined),EC50,[7],> 53 µM (inactive)
O=S(=O)(O)c1ccc2c(/N=N\c3c(O)ccc4ccccc34)cccc2c1,AC50,[5],0.631 µM (inconclusive)
same,AC50,[4],3.16 µM (inconclusive)
O=C(CN(C(=O)CSc1nc2ccccc2o1)c1cccc(F)c1)NC1CCCCC1,AC50,[4],20 µM (inconclusive)
CC(C)N=C(S)NC1(C)CCS(=O)(=O)C1 (centres undefined),EC50,[1],> 380 µM (inactive)
same,AC50,[2],> 380 µM (inactive)
COc1cccc(/C=C(\C#N)c2nc3ccccc3[nH]2)c1OCC(=O)O,EC50,[3],> 195 µM (not active)
